# Laboratory results: patent US20200085047A1, “Use of an Acyclic Picolinamide Compound as a Fungicide for Control of Phytopathogenic Fungi in Vegetables” (Dow AgroSciences LLC, priority 2017, published 2020)
# Legend:
# Format in all cases: in vivo
# Botrytis cinerea = assay: Greenhouse assessment of Botrytis cinerea (BOTRCI) on broad bean; details: inoculated 1-day post application
# Method: Greenhouse Assessment of Botrytis cinerea (BOTRCI) on Broad Bean: Technical grades of material were dissolved in acetone, which were then mixed with nine volumes of water containing 100 ppm of Triton X-100. The fungicide formulations were applied onto seedling plants using an automated booth sprayer to run off. All sprayed plants were allowed to dry prior to further handling. Test plants were inoculated with Botrytis cinerea 1-day post application. When disease symptoms were fully expressed on the untreated plants, percent diseased area of the plant was assessed on a scale of 0 to 100 percent disease severity. Percent disease control was calculated using the ratio of disease severity on treated plants relative to untreated plants.
# Alternaria solani = assay: Field assessment of Alternaria solani (ALTESO) on tomato, trial 2 (natural disease pressure); details: for Percent disease control on tomato leaves, Trial 2, 5% EC: 5% EC + Agnique BP420; for Percent disease control on tomato leaves, Trial 2, 10% SC: 10% SC + Agnique BP420
# From the text: Field Assessment of Alternaria solani (ALTESO) on Tomato:
# In a replicated trial, a fungicidal treatment containing Compound I, applied in both a 5% EC and 10% SC formulation and tank mixed with an adjuvant (Agnique BP420, 50% w/w at 0.3% v/v), was sprayed on tomato plants (LYPES, Taylor variety) at approximately 21 days after planting. Formulations of compound I was applied at rates of 100 and 200 grams of active ingredient per hectare (g ai/ha). The trial was based on six foliar applications at 10 day intervals under natural disease pressure of tomato early blight. The treatment was part of an experimental trial designed as a randomized complete block with four replications and a plot of approximately 2×4 m. Formulations of compound I were applied at water volume of 800 L/ha, using a backpack plot sprayer (BKPCKENG, Solo 443; HCSOLID—Albutz ATR80 Orange Nozzle) and pressurized at 300 kPa. Disease severity (percent control) was recorded as percent visual leaf infection per plot and was assessed at 10 days after the last application.
# [1] = system: Stagonosporopsis cucurbitacearum; assay: Field assessment of Stagonosporopsis cucurbitacearum (DIDYBR) on watermelon; details: 10% SC; for Percent control based on AUDPC, DIDYBR, adjuvant II: Agnique BP420 (50% w/w at 0.3% v/v)
# From the text: Field Assessment of Stagonosporopsis Cucurbitacearum (DIDYBR) on Watermelon:
# A 10% SC formulation of compound I was tanked mixed with four different adjuvants: Agnique BP420 (50% w/w at 0.3% v/v); Trycol (50% w/w at 0.1% v/v); Ethomeen T18H (50% w/w at 0.2% v/v); and Phase II (50% w/w at 0.2% v/v). A fungicidal treatment containing formulations of compound I, either alone or with adjuvants, was sprayed on watermelon plants four times, the first application approximately 2 months after planting, with the following three applications in 7-10 day intervals. Formulations of compound I were applied at rates of 50, 100, 150 and 200 grams of active ingredient per hectare (g ai/ha). The experimental plots were inoculated with the gummy stem blight pathogen 2 days after the first application. The treatment was part of an experimental trial designed as a randomized complete block with four replications and a plot of approximately 2.5×1.4 m. Formulations of compound I were applied at water volume of 675 L/ha.
# Disease severity was recorded as the length of stem lesion and as percent area diseased foliage (3 random plants per plot). Watermelon gummy stem blight infection was assessed twice, the first at 6 days after the first application (6 DAAA), followed by 19 DAAD. Area under the disease progress curve (AUDPC) was calculated for each plot using the sets of recorded severity data. Relative AUDPC (% control based on AUDPC) was calculated as percent of the nontreated control.
# Alternaria brassicicola = assay: Field assessment of Alternaria brassicicola (ALTEBI) on cabbage, 2 day protectant; details: 5% EC + Trycol
# From the text: Field assessment of Alternaria brassicicola (ALTEBI) on cabbage:
# A fungicidal treatment containing Compound I, applied in a 5% EC formulation and tank mixed with an adjuvant (Trycol, 50% w/w at 0.2% v/v), was sprayed three times on head cabbage plants (BRSOL) with the first application at 10-12 LF stage of cabbage. The following applications were done at 7 day intervals will all applications being sprayed at rates of 50, 100, and 150 grams of active ingredient per hectare (g ai/ha). The experimental plots were inoculated with black leaf spot pathogen 2 days after the first application. The treatment was part of an experimental trial designed as a randomized complete block with four replications and a plot of approximately 2×1 m, with compound I being applied at water volume of 800 L/ha.
# Disease severity was assessed as the percent diseased area of cabbage bottom foliage (6 plants per plot randomly). Visual infection was assessed three times during the trial at 7 days after each application. Area under the disease progress curve (AUDPC) was calculated for each plot using the sets of recorded severity data. Relative AUDPC (% control based on AUDPC) was calculated as percent of the nontreated control.
# Colletotrichum capsici = assay: Field assessment of Colletotrichum capsici (COLLCA) on hot peppers, 2 day protectant; details: 5% EC + Trycol, hot pepper
# Method: Field Assessment of Colletotrichum capsici (COLLCA) on Hot Peppers:
# Assessment of compound I of COLLCA on hot peppers, in both protectant and curative fashion, was performed in two separate field trials. For the 2 day protectant test, a fungicidal treatment containing a 5% EC formulation of compound I plus an adjuvant (Trycol, 50% w/w at 0.2% v/v), was sprayed on hot pepper plants (CPSAN) three times, the first application at the flowering and fruiting stage 43 days after planting, with the following applications in 7 day intervals. Formulations of compound I were applied at rates of 50, 100, and 150 grams of active ingredient per hectare (g ai/ha). The experimental plots were inoculated with the anthracnose pathogen 2 days after the first application. The treatment was part of an experimental trial designed as a randomized complete block with four replications and a plot of approximately 2×1 m, with formulations of compound I being applied at water volume of 1000 L/ha.
# Disease severity was assessed as the percent fruit area diseased per plant (6 plants per plot randomly). Anthracnose infection was assessed four times, 7 days after application A (DAAA), 7 DAAB, plus 7 and 14 DAAC. Area under the disease progress curve (AUDPC) was calculated for each plot using the sets of recorded visual infection data. Relative AUDPC (% control based on AUDPC) was calculated as percent of the nontreated control.
structure (smiles),measurement,setting,value
"COc1ccnc(C(=O)N[C@@H](C)C(=O)O[C@@H](C)C(c2ccc(F)cc2)c2ccc(F)cc2)c1OC(C)=O [Compound I, (S)-1,1-bis(4-fluorophenyl)propan-2-yl (3-acetoxy-4-methoxypicolinoyl)-L-alaninate]","% Control, BOTRCI",Botrytis cinerea; 6.25 ppm,B (51-75)
same,"% Control, BOTRCI",Botrytis cinerea; 25 ppm,A (76-100)
same,"% Control, BOTRCI",Botrytis cinerea; 100 ppm,A (76-100)
same,"% Control, BOTRCI",Botrytis cinerea; 400 ppm,A (76-100)
same,"Percent disease control on tomato leaves, Trial 2, 5% EC",Alternaria solani; 100 g ai/ha,A (76-100)
same,"Percent disease control on tomato leaves, Trial 2, 10% SC",Alternaria solani; 100 g ai/ha,A (76-100)
same,"Percent disease control on tomato leaves, Trial 2, 5% EC",Alternaria solani; 200 g ai/ha,A (76-100)
same,"Percent disease control on tomato leaves, Trial 2, 10% SC",Alternaria solani; 200 g ai/ha,A (76-100)
same,"Percent control based on AUDPC, DIDYBR, adjuvant II",[1]; 50 g ai/ha,A (76-100)
same,"Percent control based on AUDPC, DIDYBR, adjuvant II",[1]; 100 g ai/ha,A (76-100)
same,"Percent control based on AUDPC, DIDYBR, adjuvant IV","[1]; 100 g ai/ha, Ethomeen T18H (50% w/w at 0.2% v/v)",B (51-75)
same,"Percent control based on AUDPC, DIDYBR, adjuvant V","[1]; 100 g ai/ha, Phase II (50% w/w at 0.2% v/v)",B (51-75)
same,"Percent control based on AUDPC, DIDYBR, adjuvant III","[1]; 100 g ai/ha, Trycol (50% w/w at 0.1% v/v)",B (51-75)
same,"Percent control based on AUDPC, DIDYBR, adjuvant I","[1]; 100 g ai/ha, no adjuvant",B (51-75)
same,"Percent control based on AUDPC, DIDYBR, adjuvant II",[1]; 150 g ai/ha,A (76-100)
same,"Percent control based on AUDPC, DIDYBR, adjuvant II",[1]; 200 g ai/ha,A (76-100)
same,"Percent control based on AUDPC, ALTEBI 2 DP",Alternaria brassicicola; 50 g ai/ha,C (26-50)
same,"Percent control based on AUDPC, ALTEBI 2 DP",Alternaria brassicicola; 100 g ai/ha,B (51-75)
same,"Percent control based on AUDPC, ALTEBI 2 DP",Alternaria brassicicola; 150 g ai/ha,B (51-75)
same,"Percent control based on AUDPC, COLLCA 2 DP",Colletotrichum capsici; 50 g ai/ha,A (76-100)
same,"Percent control based on AUDPC, COLLCA 2 DP",Colletotrichum capsici; 100 g ai/ha,A (76-100)
same,"Percent control based on AUDPC, COLLCA 2 DP",Colletotrichum capsici; 150 g ai/ha,A (76-100)
